# Columns and labels:
# [1] = test system: young crickets; experiment: Olfactory associative learning test in young crickets (single-time training, memory a day after); format: in vivo, Gryllus bimaculatus
# Description: Male crickets about one week old (young) or three week old (aged) following molting into adult forms were used. Each of the crickets was placed into a 100 ml beaker three days before the experiment, and deprived of water for 2-3 days to enhance the desire of taking water. As the feed, about 10 pieces of insect feed were placed into the beaker.
# A 1-ml syringe was used for smell and reward associative conditioning upon learning/training. The syringe contained water as the reward while a piece of paper (3 mm×3 mm) perfumed with peppermint essence was pierced into the needle to about 1 cm from the tip thereof. In this learning/training, the filter paper on the needle was brought near the antennae of the cricket to allow it to smell for 3 seconds and then a drop of water was put out from the tip of the needle and applied to the mouth of the cricket. When the associative conditioning was conducted for four times, the conditionings were conducted at intervals of 5 minutes.
# Smell preference was examined by placing each cricket into a test arena. The arena consisted of a “standby chamber” and a “test chamber”. The floor of the “test chamber” had two holes each with a diameter of 4 cm which were communicated with two smell sources. The smell source was a plastic pot containing filter paper perfumed with essence of a smell (peppermint or vanilla) and covered with a gauze lid. In the preference test, each cricket was placed into the test chamber and allowed to walk freely for 4 minutes to search for the two smell sources. Two minutes after the start of the test, a rotary board having the smell sources was rotated to reverse the positions of the vanilla and the peppermint smells. During the test, the time the cricket spent placing its mouth to the gauze of the smell source was measured as a visiting time to the smell source, and the ratio of the visiting times of the two types of smells (PI value: preference index) was calculated according to the following formula to assess the relative preference to the mint smell. PI value=Tp/(Tp+Tv)×100 • Tp: Searching time for smell associated with the reward (peppermint) • Tv: Searching time for smell not associated with the reward (vanilla)
# If the preferences for the two smells are equivalent, PI will be 50. Since crickets inherently prefer vanilla smell over peppermint smell, an average PI value prior to the learning/training is usually 25-35, The preference test was conducted before and after the learning/training to examine whether preference for the smell changes due to the learning/training.
# As drugs, melatonin, N(1)-acetyl-N(2)-formyl-5-methoxykynuramine (AFMK), N(1)-acetyl-5-methoxykynuramine (AMK), 6-Hydroxymelatonin (6-HM), L-kynurenine, kynuramine, 8-Bromoguanoine 3′,5′-cyclic monophosphate sodium salt (8 br-cGMP) and cycloheximide (CHX) were used. Melatonin, 6-HM, kynurenine, kynuramine and 8br-cGMP were purchased from SIGMA Aldrich, AFMK was purchased from Cayman Chemical, AMK was purchased from Toronto Research Chemicals and CHX was purchased from Wako Pure Chemical Industries. The drugs other than 8br-cGMP and CHX were first dissolved in ethanol and then diluted with physiological saline for crickets to the respective concentrations. In the administration experiment, 3 μl was administered using a 10-μl syringe to the brain via an aperture opened through a simple eye of the head.
# PI values were tested before the training and a day after the training in the same group by a Wilcoxon's-test.
# [2] = test system: young mice; experiment: Object recognition test for young mice, AMK application to the scalp; format: in vivo, ICR mice; settings: 1 μl of 0.4 mg/μl in dimethyl sulfoxide applied to scalp 30 minutes before one 3-minute acquisition trial
# Description: Two-month-old male ICR mice (young mice) were used. The rearing room was kept at 22° C. at cycles of 12 hours of light period/12 hours of dark period, and feed and drinking water were given freely. All of the experiments were conducted during the latter 6 hours of the light period.
# N(1)-acetyl-5-methoxykynuramine (AMK) was used as a drug. AMK was diluted with dimethyl sulfoxide to result a concentration of 0.4 mg/μl. One μl of the diluent was applied to each individual.
# In order to examine the effect of AMK application to the skin, the scalps of the mice were depilated the day before the acquisition trial, AMK or dimethyl sulfoxide as a solvent was applied to 1 cm^2 of the scalp under inhalation anesthesia with isoflurane (Pfizer) 30 minutes before the acquisition trial, left for 5 minute to dry, and then the applied surface was protected with patchProtect (SmartPractice).
# Test was conducted in the same manner as “5.3 Object recognition test” in Example 5 except that searching time was 3 minutes in the acquisition trial.
# Processing was conducted in the same manner as “5.4 Statistical processing” in Example 5.
# [3] = test system: aged mice; experiment: Object recognition test (ORT) with aged mice; format: in vivo, ICR mice; settings: for long-term memory formation (DI value, test trial 24 hours later): aged (14-month-old) mice
# Description: 2-month-old male ICR mice (young mice) and 14-month-old male ICR mice (aged mice) were used. The rearing room was kept at 22° C. at cycles of 12 hours of light period/12 hours of dark period, and feed and drinking water were given freely. All of the experiments were conducted during the latter 6 hours of the light period.
# N(1)-acetyl-5-methoxykynuramine (AMK) was used as a drug. AMK was diluted with physiological saline for the administration experiment with the aged mouse, and a dosage of 0.1 mg/kg bw or 1 mg/kg bw was intraperitoneally administered.
# For an object recognition test, two each of two types of objects (height 6 cm×diameter 4 cm, height 7 cm×diameter 7 cm) and an observation box (height 30 cm×width 40 cm×depth 30 cm) were used. This test consisted of an acquisition trial and a test trial, and the experimental individuals were allowed to explore in the observation box 5 minutes a day for 3 days immediately before the experiment in order to adapt the experimental individuals to the observation box. In the acquisition trial, two identical objects were presented to the observation box and the experimental individuals were allowed to search for a minute. When the acquisition trials were conducted for more than one time, the acquisition trials were conducted at one-hour intervals. The test trial was conducted 24 hours or 4 days after the last acquisition trial. In the test trials, one of the two identical objects presented in the acquisition trials was exchanged with a different object (new object), and the experimental individuals were allowed to search for 5 minutes. During the test trials, the time that took each of the mice to search for the object was measured, and the ratio of the searching time of the two objects (DI value: discrimination index) was calculated according to the following formula to examine the relative cognitive levels to the new object. DI value (%)=Tn×100/(Tf+Tn)
# One-sample t-test was employed to compare the DI value with the expected value (50%).
smiles,measurement,setting,value
"COc1ccc(N)c(C(=O)CCNC(C)=O)c1 [Compound 1, N-[3-(2-amino-5-methoxyphenyl)-3-oxopropyl]-acetamide]",long-term memory formation a day after the training,"[1]; 8 nM, 3 μl to the brain, 20 minutes after single-time training",not
same,sufficient concentration relative to the concentration of melatonin,[1]; 40 nM AMK versus 5 μM melatonin,1/125
same,long-term memory formation a day after the training,"[1]; 40 nM, 3 μl to the brain, 20 minutes after single-time training",formed
same,long-term memory formation a day after the training,"[1]; 0.2 μM, 3 μl to the brain, 20 minutes after single-time training",formed
same,long-term memory formation a day after the training,"[1]; 1 μM, 3 μl to the brain, 20 minutes after single-time training",formed
same,long-term memory formation a day after the training,"[1]; 1 μM, 3 μl, administered between 20 minutes and 80 minutes after single-time training",a long-term memory was formed
same,long-term memory formation a day after the training,"[1]; 5 μM, 3 μl to the brain, 20 minutes after single-time training, listed as AMK",long-term memories were formed
same,long-term memory formation a day after the training,"[1]; 5 μM, 3 μl to the brain, 20 minutes before single-time training",long-term memories were formed
same,administration concentration sufficient to form long-term memory,[1]; 3 μl to the brain 20 minutes after single-time training,40 nM
same,timing of administration sufficient to form long-term memory,"[1]; time following the single-time training, melatonin and AFMK 5 μM, AMK 1 μM",up to 80 minutes
same,"long-term memory formation (DI value, test trial 24 hours later)",[2],a long-term memory was formed
same,"long-term memory formation (DI value, test trial 24 hours later)",[3]; 0.1 mg/kg bw i.p. 15 minutes after two one-minute acquisition trials,a long-term memory was formed
same,"long-term memory formation (DI value, test trial 24 hours later)",[3]; 1 mg/kg bw i.p. 15 minutes after one one-minute acquisition trial,a long-term memory was formed
same,duration of induced long-term memory,"[3]; aged mice, 1 mg/kg bw i.p. 15 minutes after one acquisition trial, test trials 1 and 4 days later",at least 4 days
